Data taken from US12036194B1, “Methods of administering solriamfetol to lactating women” (Axsome Malta Ltd., priority 2022, dated 2024).
Several values for one entry are separate records, joined by “and”; a condition that tells them apart may be missing. Equal values may be shown once. Where a name gives a salt, the structure may show the parent alone.

Assays:
[1] = rats; breast milk; cited from earlier work
[2] = Sunosi label, cited from earlier work
[3] = Phase 4 single-dose study: safety and tolerability (adverse events, vital signs, 12-lead ECG, C-SSRS); type: in vivo, human; conditions: for Subjects who discontinued due to AE / Subjects with Mild AE / Subjects with Moderate AE / Subjects with SAE / Subjects with an AE considered related to study drug / Subjects with an AE considered unrelated to study drug / Subjects with at least 1 AE: hydrochloride
Procedure: Pharmacokinetic analysis of breast milk obtained from both breasts (by pumping) was evaluated prior to dose administration and at intervals up to 72 hours postdose. Blood samples were also collected for plasma solriamfetol quantitation and PK analysis predose and at timepoints up to 72 hours postdose. Solriamfetol breast milk and plasma concentrations were measured using validated bioanalytical methods. Safety was assessed throughout the study by 12-lead ECG, vital sign measurements, the Columbia-Suicide Severity Rating Scale (C-SSRS), and the incidence of adverse events (AE).
Vital signs (blood pressure, pulse rate, temperature, and respiratory rate) were measured with the subject in a seated or supine position and resting for at least 5 minutes prior to taking the measurement. The dominant arm was used for blood pressure and pulse rate measurements. On Day 1, vital signs were collected at predose, and at approximately 2 (blood pressure and pulse) and 4 hours (blood pressure and pulse) postdose.
12-lead ECG was taken with the subject in a supine position and resting for at least 10 minutes prior to taking the measurement. On Day 1, ECGs were collected predose and at approximately 2 hours postdose.
Adverse events were monitored throughout the study by safety assessments, observations, and subject reporting, including the Safety FU telephone call 5-7 days (i.e., Days 9-11) after check-out from the study facility on Day 4, or ET.
The 12-lead ECGs were collected at Screening, Day −1 until Day 4. Single 12-lead ECG was obtained using an ECG machine that automatically calculated the heart rate and measured PR, QRS, QT, and corrected QT interval (QTc) intervals. Any abnormal safety assessments including ECG readings considered clinically significant in the medical and scientific judgment of the investigator were reported as an AE. The investigator had to review the ECG and document it in the source documents. Clinically significant abnormal ECG results reported during Screening were recorded as medical history and those reported after study drug were recorded as AEs.
Safety analyses were based on the Safety Population. The secondary endpoints for evaluating subject safety and tolerance were the incidence of reported AEs and the laboratory test results for all subjects.
Adverse events: Adverse events recorded in the electronic case report forms (eCRFs) were coded to SOC and PT using the Medical Dictionary for Regulatory Activities (MedDRA). Treatment-emergent adverse events (TEAEs) are defined as any event with onset date on or after the first dose of study drug or any ongoing event that worsened in severity after the date of the first dose of study drug or any event that was present at baseline but was subsequently considered drug-related by the investigator through the end of the study. The incidence of TEAEs were presented by severity, relationship to study drug, start and end date, seriousness, and outcome. The investigator assessed the severity and relatedness of each AE to study drug. Columbia-Suicide Severity Rating Scale (C-SSRS) data were summarized at scheduled visits and were listed. Other safety analyses were performed as appropriate.
12 Lead ECG: The number and percentage of subjects who had the following postbaseline clinically notable ECG interval abnormality was summarized: Ventricular rate >100 beats/min or ≤60 beats/min; PR interval ≥200 msec or ≤120 msec; QRS duration ≥100 msec or ≤80 msec; QT interval ≥440 msec or ≤350 msec; QTc Bazett and QTc Fredericia ≥470 msec or ≤330 msec; RR interval ≥1200 msec or ≤600 msec; and QTc Bazette and QTc Fredericia increase from study Baseline Value >30 msec. […]

[4] = healthy male and female patients not postpartum
[5] = Solriamfetol 150 mg single dose, N = 6
[6] = Solriamfetol 150 mg single dose, N = 6, listed as solriamfetol
[7] = any post-baseline visit/timepoint, 150 mg, N = 6

SMILES: NC(=O)OC[C@H](N)Cc1ccccc1 [Solriamfetol, (R)-2-amino-3-phenylpropyl carbamate (APC) hydrochloride]
- solriamfetol milk concentrations versus plasma concentrations [1]: higher than
- apparent mean elimination plasma half-life [2, 4]: 7.1 h
- oral bioavailability [2, 4]: approximately 95%
- median Tmax of peak plasma concentration ([2]; post-dose under fasted conditions, not postpartum): 2 h
- abnormal clinically significant ECG findings ([3]; 150 mg single dose, N = 6): No abnormal clinically significant ECG findings
- number of TEAEs of mild intensity (dizziness, headache, agitation; related to study drug) ([3]; 150 mg single dose, N = 6): 3 TEAEs
- number of TEAEs of moderate intensity (headache; unrelated to study drug) ([3]; 150 mg single dose, N = 6): 1 TEAE
- outcome of TEAEs ([3]; 150 mg single dose, N = 6): resolved
- subjects reporting suicidal ideation or event under Columbia-Classification Algorithm for Suicide Assessment ([3]; 150 mg single dose, N = 6): None
- subjects with abnormal, clinically significant laboratory findings ([3]; 150 mg single dose, N = 6): None
- total number of TEAEs reported ([3]; 150 mg single dose, N = 6): 4 TEAEs
- Subjects who discontinued due to AE considered related to study drug [3, 5]: 0 n (%)
- Subjects who discontinued due to AE considered unrelated to study drug [3, 5]: 0 n (%)
- Subjects with Fatal AE [3, 5]: 0 n (%)
- Subjects with Life-threatening AE [3, 5]: 0 n (%)
- Subjects with SAE considered related to study drug [3, 5]: 0 n (%)
- Subjects with SAE considered unrelated to study drug [3, 5]: 0 n (%)
- Subjects with Severe AE [3, 5]: 0 n (%)
- TEAE, PT Agitation [3, 5]: 1 (16.7) n (%)
- TEAE, PT Dizziness [3, 5]: 1 (16.7) n (%)
- TEAE, PT Headache [3, 5]: 2 (33.3) n (%)
- TEAE, SOC Nervous system disorders [3, 5]: 2 (33.3) n (%)
- TEAE, SOC Psychiatric disorders [3, 5]: 1 (16.7) n (%)
- Subjects who discontinued due to AE [3, 5]: 0 n (%)
- Subjects with Mild AE [3, 5]: 2 (33.3) n (%)
- Subjects with Moderate AE [3, 5]: 1 (16.7) n (%)
- Subjects with SAE [3, 5]: 0 n (%)
- Subjects with an AE considered related to study drug [3, 5]: 2 (33.3) n (%)
- Subjects with an AE considered unrelated to study drug [3, 5]: 1 (16.7) n (%)
- Subjects with at least 1 AE [3, 5]: 3 (50.0) n (%)
- Subjects who discontinued due to AE [3, 6]: None
- Subjects with Mild AE [3, 6]: 2 (33.3%) n (%)
- Subjects with Moderate AE [3, 6]: 1 (16.7%) n (%)
- Subjects with SAE [3, 6]: No SAEs
- Subjects with an AE considered related to study drug [3, 6]: 2 (33.3%) n (%)
- Subjects with an AE considered unrelated to study drug [3, 6]: 1 (16.7%) n (%)
- Subjects with at least 1 AE [3, 6]: 3 (50%) n (%) and 3 n (%)
- Clinically notable Body temperature: Change in body temperature > 1.8% from the subjects baseline temperature recordings [3, 7]: 1 (16.7) n (%)
- Clinically notable Diastolic blood pressure: Average diastolic blood pressure ≥ 95 mmHg or ≤ 60 mmHg [3, 7]: 2 (33.3) n (%)
- Clinically notable ECG mean heart rate: Ventricular rate ≥ 100 beats/min or ≤ 60 beats/min [3, 7]: 2 (33.3) n (%)
- Clinically notable PR interval, single beat: PR interval ≥ 200 msec or ≤ 120 msec [3, 7]: 2 (33.3) n (%)
- Clinically notable Pulse rate: Pulse change by > 20% from the study baseline value/recordings [3, 7]: 2 (33.3) n (%)
- Clinically notable QRS duration, single beat: QRS duration ≥ 100 msec or ≤ 80 msec [3, 7]: 4 (66.7) n (%)
- Clinically notable QT interval, single beat: QT interval ≥ 440 msec or ≤ 350 msec [3, 7]: 1 (16.7) n (%)
- Clinically notable Systolic blood pressure: Blood pressure change by > 20% from the study baseline value/recordings [3, 7]: 1 (16.7) n (%)
- changes in vital sign parameters from baseline ([3]; baseline to Day 1 2 hours and 4 hours, Day 2, Day 3, Day 4): no major changes
- changes in ECG parameters from baseline ([3]; baseline to Day 1 predose and 2 hours, Day 2, Day 3, Day 4): no major changes
- overall safety and tolerability ([3]; single oral dose 150 mg, 6 healthy postpartum women): safe and well tolerated
